# Measurements taken from patent publication US20080300147A1, “Detection and Treatment of Fibrotic Disorders” (priority 2004, published 2008).
# Columns and labels:
# myometrium [1] = details: GnRHa treated group compared to secretory phase tissues
# Description: (§1) Western Blot Analysis and Immunohistochemical Localization. For immunoblotting, total protein was isolated from small portions of GnRHa-treated and untreated leiomyoma and myometrium as well as the GnRHa-treated and untreated cells as previously described (Ding, L et al. J Clin Endocrinol Metab, 2004, 89:5549-5557; Chegini, N et al. Mol Cell Endocrinol, 2003, 209:9-16). Following determination of the tissue homogenates and cell lysates protein content an equal amount of sample proteins were subjected to SDS-PAGE and transferred to polyvinyldiene difluoride (PVDF) membrane. The blots were incubated with anti-TIEG antibody, kindly provided by Dr. Thomas Spelsberg, Department of Biochemistry, Mayo Clinic, Rochester, Minn. (Johnsen, S A et al. Oncogene, 2002, 21:5783-90), TGIF, EGR3, p27, p57, Nur77 and Gas1 antibodies purchased from Santa Cruz Biochemical (Santa Cruz, Calif.), IL-11 antibodies purchased from R & D system (Minneapolis, Minn.) for 1 hr at room temperature. […]
# (§2) Western Blot Analysis and Immunohistochemical Localization. […] The homogenates' protein contents were determined, and an equal amount was subjected to SDS-PAGE and transferred to polyvinyldiene difluoride membrane.
# leiomyoma [2] = details: GnRHa treated group compared to secretory phase tissues
# Description: as §1, §2
# leiomyoma [3] = experiment: Realtime PCR mRNA expression in leiomyoma, GnRHa therapy vs untreated; format: in vivo, human
# Description: (§3) Tissues. Portions of leiomyoma and matched myometrium were collected from premenopausal women (N=6) who were scheduled to undergo hysterectomy for indications related to symptomatic leiomyomas. Three of the patients received GnRHa therapy for three months prior to surgery. […] To maintain a standard, all leiomyomas selected for this study were between 2 to 3 cm in diameter. […] The tissues were collected at the University of Florida affiliated Shands Hospital with prior approval obtained from the Institutional Review Board.
# (§4) Quantitative RealTime PCR. Realtime PCR was utilized for verification of 10 differentially expressed and regulated genes identified in leiomyoma and myometrium as well as LSMC and MSMC from untreated and GnRHa-treated cohorts. The selection of these genes was based not only on their expression values (up or downregulation), but classification and biological functions important to leiomyoma growth and regression, regulation by ovarian steroids, GnRHa and TGF-β. They are IL-11, CITED2, Nur77, EGR3, TGIF, TIEG, p27, p57, GAS-1 and GPRK5 representing cytokines, transcription factors, cell cycle regulators and signal transduction.
# (§5) Portions of leiomyoma and matched myometrium were collected from premenopausal women (N=27) who were scheduled to undergo hysterectomy for symptomatic uterine leiomyomas at the University of Florida affiliated Shands Hospital. Of these patients seven received GnRHa therapy for a period of three months prior to surgery. […] To maintain a standard, leiomyomas used in this study were 2 to 3 cm in diameter. Prior approval was obtained from the University of Florida Institutional Review Board for the experimental protocol of this study.
# as §5, with “patients,” for “patients”
# (§6) Realtime PCR. Briefly, total RNA was isolated from leiomyoma and matched myometrium using Trizol Reagent (INVITROGEN, Carlsbad, Calif.) and complimentary DNA was generated from 2 μg of total RNA using Taqman reverse transcription reagent. The newly synthesized cDNA was used for PCR performed in 96-well optical reaction plates with cDNA equivalent to 100 ng RNA in a volume of 50 μl reaction containing 1× Taqman Universal Master Mix, optimized concentrations of FAM-labeled probe and specific forward and reverse primer for FMOD selected from Assay on Demand (APPLIED BIOSYSTEMS). Controls included RNA subjected to RT-PCR without reverse transcriptase and PCR with water replacing cDNA.
# myometrium [4] = experiment: Realtime PCR mRNA expression in myometrium, GnRHa therapy vs untreated; format: in vivo, human
# Description: as §3, §4, §5
# as §5, with “patients,” for “patients”
# as §6
# [5] = GnRHa therapy three months (N=7) vs untreated
# [6] = GnRHa therapy three months vs untreated
smiles,measurement,setting,value
"CCNC(=O)[C@@H]1CCCN1C(=O)[C@H](CCCNC(=N)N)NC(=O)[C@H](CC(C)C)NC(=O)[C@@H](CC(C)C)NC(=O)[C@H](Cc1ccc(O)cc1)NC(=O)[C@H](CO)NC(=O)[C@H](Cc1c[nH]c2ccccc12)NC(=O)[C@H](Cc1c[nH]cn1)NC(=O)[C@@H]1CCC(=O)N1 [GnRHa, leuprolide acetate]",FMOD immunoreactive intensity in myometrium,myometrium [1],reduction
same,FMOD immunoreactive intensity in leiomyoma,leiomyoma [2],reduction
same,FMOD mRNA expression in leiomyoma,leiomyoma [3]; [5],significantly reduced
same,CCN2 mRNA expression in leiomyoma,leiomyoma [3]; [6],alters
same,CCN3 mRNA expression in leiomyoma,leiomyoma [3]; [6],without affecting
same,CCN4 mRNA expression in leiomyoma,leiomyoma [3]; [6],without affecting
same,fibulin-1C mRNA expression in leiomyoma,leiomyoma [3]; [6],without affecting
same,CITED2 expression in leiomyoma,leiomyoma [3]; GnRHa therapy vs untreated,increased
same,GPRK5 expression in leiomyoma,leiomyoma [3]; GnRHa therapy vs untreated,inhibits
same,IL-11 expression in leiomyoma,leiomyoma [3]; GnRHa therapy vs untreated,suppressed
same,Nur77 expression in leiomyoma,leiomyoma [3]; GnRHa therapy vs untreated,significant elevation
same,FMOD mRNA expression in myometrium,myometrium [4]; [5],significantly reduced
same,CCN3 mRNA expression in myometrium,myometrium [4]; [6],significant reduction
same,CCN4 mRNA expression in myometrium,myometrium [4]; [6],significant reduction
same,S100A4 mRNA expression in myometrium,myometrium [4]; [6],significant reduction
same,CITED2 expression in myometrium,myometrium [4]; GnRHa therapy vs untreated,increased
same,GPRK5 expression in myometrium,myometrium [4]; GnRHa therapy vs untreated,inhibits
same,IL-11 expression in myometrium,myometrium [4]; GnRHa therapy vs untreated,suppressed
same,Nur77 expression in myometrium,myometrium [4]; GnRHa therapy vs untreated,significant elevation
